Data: patent US4708871A, “Antigenically active amino acid sequences” (priority 1983, dated 1987)
“Also recorded” adds a separate entry of the source. No end group written: not given here.

Tests used:
Format in all cases: binding, rabbit
[1] = tested on: anti-intact virus particle, type O1 antisera
[2] = tested on: anti-intact virus particle, type C1 antiserum
[3] = tested on: anti-virus-subunit, type O1 antiserum
[4] = tested on: anti-VP1, type O1 antiserum

Row | Substance | Change of activity, absorbed compared to non-absorbed serum [1] | Reactive antibody in anti-intact virus serum after absorption with purified virus (ELISA) [1] | Reactive antibody in whole anti-intact virus sera (ELISA) [1] | Reaction with antiserum to type C1 (ELISA) [2] | Reactive antibody in anti-subunit sera (ELISA) [3] | Activity with another anti-VP1 serum (ELISA) [4] | Reactive antibody in anti-VP1 sera (ELISA) [4]
1 | DLQVLA [compound 147] | loss of activity | absent | present; also recorded: reacted | did not react at all | not observed | showed nothing | only weakly present
2 | GDLQVL [GDLQVL] | loss of activity | absent | present; also recorded: reacted | did not react at all | not observed | showed nothing | only weakly present
